Measured values: patent US7799804B2, “Therapeutic agents” (Astrazeneca AB, priority 2004, dated 2010)

Biological target: T1, CB1 receptor (Homo sapiens, UniProt P21554)
T1 construct: expressed in transfected cells
Assay: [35S]-GTPγS binding assay on membranes from cells stably transfected with the CB1 gene, inhibition of agonist CP55940 (EC80)
Type: biochemical
Details: half maximal inhibition of GTPγS binding in presence of EC80 concentration of CP55940; 30° C., 45 min
Description: 10 μg of membranes prepared from cells stably transfected with the CB1 gene were suspended in 200 μl of 100 mM NaCl, 5 mM MgCl2, 1 mM EDTA, 50 mM HEPES (pH 7.4), 1 mM DTT, 0.1% BSA and 100 μM GDP.
The reaction was allowed to proceed at 30° C. for 45 min. Samples were then transferred on to GF/B filters using a cell harvester and washed with wash buffer (50 mM Tris (pH 7.4), 5 mM MgCl2, 50 mM NaCl). Filters were then covered with scintillant and counted for the amount of [^35S]-GTPγS retained by the filter.
Activity is measured in the absence of all ligands (minimum activity) or in the presence of an EC80 concentration of CP55940 (maximum activity). These activities are set as 0% and 100% activity respectively. At various concentrations of novel ligand, activity is calculated as a percentage of the maximum activity and plotted. The data are fitted using the equation y=A+((B−A)/1+((C/x) UD)) and the IC50 value determined as the concentration required to give half maximal inhibition of GTPγS binding under the conditions used.

T1 sequence (P21554 whole entry): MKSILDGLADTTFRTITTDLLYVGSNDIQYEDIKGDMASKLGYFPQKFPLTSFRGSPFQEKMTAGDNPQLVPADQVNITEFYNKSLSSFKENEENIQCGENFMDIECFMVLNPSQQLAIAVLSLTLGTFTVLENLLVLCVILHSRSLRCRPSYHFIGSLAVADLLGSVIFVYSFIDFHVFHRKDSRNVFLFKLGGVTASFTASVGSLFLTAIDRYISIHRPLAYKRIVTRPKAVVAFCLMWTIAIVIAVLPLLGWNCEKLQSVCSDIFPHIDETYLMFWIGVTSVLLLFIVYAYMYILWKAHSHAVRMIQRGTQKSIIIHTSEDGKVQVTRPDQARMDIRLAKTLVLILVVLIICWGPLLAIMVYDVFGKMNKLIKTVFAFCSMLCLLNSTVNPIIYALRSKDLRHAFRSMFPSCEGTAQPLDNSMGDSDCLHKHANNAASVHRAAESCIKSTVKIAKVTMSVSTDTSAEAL

`CCS(=O)(=O)Oc1ccc(-n2c(-c3ccc(Cl)cc3Cl)nc(C(=O)NN3CCCCC3)c2C)cc1` [Example 2, Ethanesulfonic acid 4-[2-(2,4-dichlorophenyl)-5-methyl-4-(piperidin-1-ylcarbamoyl)-imidazol-1-yl]-phenyl ester] gave an IC50 of 28 nM.
